# Measured values as given in ChEMBL document CHEMBL3769367, “Orexin Receptor Antagonists: New Therapeutic Agents for the Treatment of Insomnia” (J Med Chem, 2016).
# Columns and labels:
# Cytochrome P450 3A4 = Cytochrome P450 3A4 (Homo sapiens, UniProt P08684); assay: Inhibition of CYP3A4 (unknown origin); assay type: ADME
# [1] = molecular target: T1, Orexin/Hypocretin receptor type 1 (Homo sapiens, UniProt O43613); assay: Antagonist activity at human OX1R expressed in CHO cells assessed as inhibition of orexin-A-induced intracellular calcium release by FLIPR assay; assay type: functional, cell-based
# T1 sequence (O43613 whole entry): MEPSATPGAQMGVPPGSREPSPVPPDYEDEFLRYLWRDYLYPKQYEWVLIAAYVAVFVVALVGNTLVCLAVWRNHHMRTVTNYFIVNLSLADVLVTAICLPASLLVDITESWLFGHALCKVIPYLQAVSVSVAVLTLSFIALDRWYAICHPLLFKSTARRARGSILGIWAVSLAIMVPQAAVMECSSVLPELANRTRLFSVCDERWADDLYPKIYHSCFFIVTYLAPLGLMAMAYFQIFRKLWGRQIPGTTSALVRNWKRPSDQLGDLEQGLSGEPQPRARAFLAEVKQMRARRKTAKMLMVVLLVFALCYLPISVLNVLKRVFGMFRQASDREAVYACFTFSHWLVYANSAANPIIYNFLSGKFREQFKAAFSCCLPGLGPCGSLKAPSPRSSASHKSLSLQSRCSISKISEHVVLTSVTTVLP
# Orexin receptor type 2 [2] = molecular target: T2, Orexin receptor type 2 (Homo sapiens, UniProt O43614); assay: Antagonist activity at human OX2R expressed in CHO cells assessed as inhibition of orexin-A-induced intracellular calcium release by FLIPR assay; assay type: functional, cell-based
# T2 sequence (O43614 whole entry): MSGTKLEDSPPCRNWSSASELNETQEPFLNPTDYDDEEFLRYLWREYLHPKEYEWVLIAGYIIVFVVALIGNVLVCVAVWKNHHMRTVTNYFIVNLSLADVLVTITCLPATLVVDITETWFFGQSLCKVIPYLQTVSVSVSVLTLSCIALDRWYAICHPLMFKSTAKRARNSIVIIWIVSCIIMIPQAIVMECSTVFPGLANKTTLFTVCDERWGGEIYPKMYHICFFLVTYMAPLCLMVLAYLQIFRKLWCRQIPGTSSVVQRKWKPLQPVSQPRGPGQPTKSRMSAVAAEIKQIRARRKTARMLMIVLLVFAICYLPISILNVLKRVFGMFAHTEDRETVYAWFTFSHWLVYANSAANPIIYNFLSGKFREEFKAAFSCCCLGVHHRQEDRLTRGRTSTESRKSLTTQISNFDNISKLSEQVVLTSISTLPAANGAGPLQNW
# [3] = Plasma protein binding in Wistar rat; assay type: ADME, cell-free; settings: read-out: PPB (converted)
# [4] = Elimination half life in human at 1 to 1000 mg administered as single dose; assay type: ADME, organism-based; settings: in vivo, read-out: beta t1/2 (converted)
# Canis familiaris = assay: Effect on sleep parameter in po dosed Beagle dog by EEG analysis; assay type: functional, Canis lupus familiaris
# [5] = Ratio of drug level in CSF to plasma in Wistar rat
# [6] = Ratio of drug level in brain to plasma in Wistar rat; assay type: ADME, cell-free; settings: read-out: BPR
# [7] = Half life in iv dosed Wistar rat; assay type: ADME, organism-based; settings: in vivo
# [8] = Oral bioavailability in Wistar rat; assay type: ADME, organism-based; settings: in vivo
# [9] = Oral bioavailability in Beagle dog; assay type: ADME, organism-based, Canis lupus familiaris; settings: in vivo
# Rattus norvegicus [10] = assay: Effect on sleep parameter in po dosed Wistar rat by EEG analysis; assay type: functional
# Rattus norvegicus [11] = assay: Effect on sleep parameter in Wistar rat assessed as NREM sleep duration time at 100 mg/kg, po measured over 12 hrs (reference value: 243 +/- 8 min); assay type: functional
# Rattus norvegicus [12] = assay: Effect on sleep parameter in Wistar rat assessed as REM sleep duration time at 100 mg/kg, po measured over 12 hrs (reference value: 33 +/- 4 min); assay type: functional
# Rattus norvegicus [13] = assay: Effect on sleep parameter in Wistar rat assessed as latency to persistent NREM time at 100 mg/kg, po measured over 12 hrs (reference value: 40 +/- 3 min); assay type: functional
# Rattus norvegicus [14] = assay: Effect on sleep parameter in Wistar rat assessed as latency to persistent REM time at 100 mg/kg, po measured over 12 hrs (reference value: 101 +/- 17 min); assay type: functional
# [15] = Oral bioavailability in human; assay type: ADME, organism-based; settings: in vivo
# [16] = Tmax in human at 1 to 1000 mg administered as single dose; assay type: ADME, organism-based; settings: in vivo
# Homo sapiens [17] = assay: Effect on sleep parameter in insomnia patient assessed as sleep efficiency at 50 mg, po by polysomnography; assay type: functional
# Homo sapiens [18] = assay: Effect on sleep parameter in insomnia patient assessed as latency to persistent sleep time at 50 mg, po by polysomnography; assay type: functional
# Homo sapiens [19] = assay: Effect on sleep parameter in insomnia patient assessed as wake after sleep onset time at 50 mg, po by polysomnography; assay type: functional
# Homo sapiens [20] = assay: Effect on sleep parameter in insomnia patient assessed as total sleep time at 50 mg, po by polysomnography; assay type: functional
# Homo sapiens [21] = assay: Effect on sleep parameter in insomnia patient assessed as sleep efficiency at 100 mg, po by polysomnography; assay type: functional
# Homo sapiens [22] = assay: Effect on sleep parameter in insomnia patient assessed as latency to persistent sleep time at 100 mg, po by polysomnography; assay type: functional
# Homo sapiens [23] = assay: Effect on sleep parameter in insomnia patient assessed as wake after sleep onset time at 100 mg, po by polysomnography; assay type: functional
# Homo sapiens [24] = assay: Effect on sleep parameter in insomnia patient assessed as total sleep time at 100 mg, po by polysomnography; assay type: functional
# Homo sapiens [25] = assay: Effect on sleep parameter in insomnia patient assessed as sleep efficiency at 200 mg, po by polysomnography; assay type: functional
# Homo sapiens [26] = assay: Effect on sleep parameter in insomnia patient assessed as latency to persistent sleep time at 200 mg, po by polysomnography; assay type: functional
# Homo sapiens [27] = assay: Effect on sleep parameter in insomnia patient assessed as wake after sleep onset time at 200 mg, po by polysomnography; assay type: functional
# Homo sapiens [28] = assay: Effect on sleep parameter in insomnia patient assessed as total sleep time at 200 mg, po by polysomnography; assay type: functional
# Homo sapiens [29] = assay: Effect on sleep parameter in insomnia patient assessed as sleep efficiency at 400 mg, po by polysomnography; assay type: functional
# Homo sapiens [30] = assay: Effect on sleep parameter in insomnia patient assessed as latency to persistent sleep time at 400 mg, po by polysomnography; assay type: functional
# Homo sapiens [31] = assay: Effect on sleep parameter in insomnia patient assessed as wake after sleep onset time at 400 mg, po by polysomnography; assay type: functional
# Homo sapiens [32] = assay: Effect on sleep parameter in insomnia patient assessed as total sleep time at 400 mg, po by polysomnography; assay type: functional
# Orexin receptor type 2 [33] = molecular target: T2, Orexin receptor type 2; assay: Antagonist activity at OX2R (unknown origin)
# [34] = molecular target: T1, Orexin/Hypocretin receptor type 1; assay: Antagonist activity at OX1R (unknown origin)
# Orexin receptor type 2 [35] = molecular target: T2, Orexin receptor type 2; assay: Binding affinity to OX2R (unknown origin)
# [36] = molecular target: T1, Orexin/Hypocretin receptor type 1; assay: Binding affinity to OX1R (unknown origin)
# Sequence of Cytochrome P450 3A4 (P08684 whole entry): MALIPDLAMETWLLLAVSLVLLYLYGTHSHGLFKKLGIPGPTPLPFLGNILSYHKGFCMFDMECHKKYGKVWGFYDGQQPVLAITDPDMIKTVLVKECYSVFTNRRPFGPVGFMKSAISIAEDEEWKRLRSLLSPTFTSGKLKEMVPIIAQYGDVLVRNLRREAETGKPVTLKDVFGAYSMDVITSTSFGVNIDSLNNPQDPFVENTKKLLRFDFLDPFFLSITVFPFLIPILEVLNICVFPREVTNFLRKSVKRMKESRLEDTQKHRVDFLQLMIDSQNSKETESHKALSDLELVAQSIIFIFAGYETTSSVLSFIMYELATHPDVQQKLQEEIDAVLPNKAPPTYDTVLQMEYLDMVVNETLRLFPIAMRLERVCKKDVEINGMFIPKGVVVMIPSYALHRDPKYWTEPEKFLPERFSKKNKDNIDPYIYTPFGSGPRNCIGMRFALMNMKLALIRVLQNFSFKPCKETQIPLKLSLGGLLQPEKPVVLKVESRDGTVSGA
structure (smiles),measurement,setting,value
COc1ccc(S(=O)(=O)N2CCC[C@H]2C(=O)Nc2cccc(SC)c2)cc1,IC50,Cytochrome P450 3A4,8000 nM
same,IC50,[1],31 nM
same,IC50,Orexin receptor type 2 [2],7 nM
CNC(=O)[C@@H](c1ccccc1)N1CCc2cc(OC)c(OC)cc2[C@@H]1CCc1ccc(C(F)(F)F)cc1 [ALMOREXANT],fraction unbound,[3],0.01
same,half-life,[4],13.1 h
same,Activity,Canis familiaris,100 mg/kg
same,Kp,[5],0.002
same,Kp,[6],0.3
same,half-life,[7],8 h
same,bioavailability,[8],8%
same,bioavailability,[9],18%
same,Activity,Rattus norvegicus [10],30 mg/kg
same,Time,Rattus norvegicus [11],286 min
same,Time,Rattus norvegicus [12],50 min
same,Time,Rattus norvegicus [13],30 min
same,Time,Rattus norvegicus [14],91 min
same,bioavailability,[15],11%
same,Tmax,[16],0.7 h
same,Activity,Homo sapiens [17],3.3%
same,Time,Homo sapiens [18],-5.7 min
same,Time,Homo sapiens [19],-6.7 min
same,Time,Homo sapiens [20],15.8 min
same,Activity,Homo sapiens [21],4.6%
same,Time,Homo sapiens [22],-10.4 min
same,Time,Homo sapiens [23],-20.1 min
same,Time,Homo sapiens [24],21.4 min
same,Activity,Homo sapiens [25],8.2%
same,Time,Homo sapiens [26],-10.4 min
same,Time,Homo sapiens [27],-34.3 min
same,Time,Homo sapiens [28],39.3 min
same,Activity,Homo sapiens [29],14.4%
same,Time,Homo sapiens [30],-18 min
same,Time,Homo sapiens [31],-54 min
same,Time,Homo sapiens [32],69.7 min
Cc1nc(C(=O)N2CCCC[C@H]2CCOc2ccc(F)cc2)c(-c2ccccc2)s1,IC50,Orexin receptor type 2 [33],14 nM
same,IC50,[34],12 nM
Cc1ccc(-n2nccn2)c(C(=O)N2CCCC(COc3ccc(F)c(C)c3)C2)c1 (stereo not drawn),Ki,Orexin receptor type 2 [35],16 nM
same,Ki,[36],15 nM
